In ChEMBL document CHEMBL3046236, “The application of comparative molecular field analysis for the design of -anilino substituted-3-phenyl propanoic acids as novel PPAR/ dual ligands” (Med Chem Res, 2012):

Key:
[1] = target: T1, Peroxisome proliferator-activated receptor alpha (Homo sapiens, UniProt Q07869); assay: Transactivation of Homo sapiens (human) PPARalpha assessed as luciferase activity by reporter gene assay
T1 sequence (Q07869 whole entry): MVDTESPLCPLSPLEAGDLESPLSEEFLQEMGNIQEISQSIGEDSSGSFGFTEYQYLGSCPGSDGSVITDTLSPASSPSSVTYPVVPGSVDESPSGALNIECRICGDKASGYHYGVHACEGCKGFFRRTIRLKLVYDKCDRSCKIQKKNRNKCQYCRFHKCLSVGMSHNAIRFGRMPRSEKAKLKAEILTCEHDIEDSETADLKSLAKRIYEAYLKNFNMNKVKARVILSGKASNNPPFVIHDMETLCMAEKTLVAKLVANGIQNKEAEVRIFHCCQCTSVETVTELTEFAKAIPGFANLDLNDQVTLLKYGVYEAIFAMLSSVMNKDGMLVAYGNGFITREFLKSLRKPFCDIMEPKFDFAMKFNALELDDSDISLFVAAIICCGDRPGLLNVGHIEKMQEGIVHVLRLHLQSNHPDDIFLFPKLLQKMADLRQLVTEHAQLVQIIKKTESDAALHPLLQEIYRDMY

[2] = target: T2, Peroxisome proliferator-activated receptor gamma (Homo sapiens, UniProt P37231)
T2 sequence (P37231 whole entry): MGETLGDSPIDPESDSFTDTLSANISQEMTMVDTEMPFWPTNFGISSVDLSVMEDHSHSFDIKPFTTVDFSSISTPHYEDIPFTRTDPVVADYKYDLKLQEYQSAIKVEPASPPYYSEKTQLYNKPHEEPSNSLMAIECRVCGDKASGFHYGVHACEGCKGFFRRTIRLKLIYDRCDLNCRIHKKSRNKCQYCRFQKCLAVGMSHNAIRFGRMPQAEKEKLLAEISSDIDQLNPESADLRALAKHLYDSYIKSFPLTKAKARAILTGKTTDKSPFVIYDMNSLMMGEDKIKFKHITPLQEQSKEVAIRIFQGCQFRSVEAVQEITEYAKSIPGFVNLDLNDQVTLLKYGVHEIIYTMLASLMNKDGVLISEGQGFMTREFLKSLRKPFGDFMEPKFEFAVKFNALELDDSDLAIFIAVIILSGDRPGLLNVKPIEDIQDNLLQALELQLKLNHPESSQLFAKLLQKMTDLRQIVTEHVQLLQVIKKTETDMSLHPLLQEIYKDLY
Description: Transactivation of Homo sapiens (human) PPARgamma assessed as luciferase activity by reporter gene assay

SMILES | EC50 [1] | EC50 [2]
CCO[C@@H](Cc1ccc(OC/C=C(\c2ccccc2)c2ccc(Br)cc2)cc1)C(=O)O | 2190 nM | 4270 nM
CCO[C@@H](Cc1ccc(OCC=C(c2ccc(C)cc2)c2ccc(C)cc2)cc1)C(=O)O | 692 nM | –
CC(C)O[C@H](Cc1ccc(OCc2noc(-c3cc(C(F)(F)F)cc(C(F)(F)F)c3)n2)cc1)C(=O)O | 2510 nM | 631 nM
Cc1oc(C2CCCCC2)nc1CCOc1ccc(C[C@H](Oc2ccccc2)C(=O)O)cc1 | 1 nM | 1 nM
CCO[C@@H](Cc1ccc(OC/C=C(/c2ccccc2)c2ccc(-c3ccccc3)cc2)cc1)C(=O)O | 891 nM | –
CCO[C@@H](Cc1ccc(OC/C=C(/c2ccccc2)c2ccc(F)cc2)cc1)C(=O)O | 5250 nM | 8510 nM
Cc1sc(-c2ccncc2)nc1CCOc1ccc(C[C@H](Nc2ccccc2C(=O)c2ccccc2)C(=O)O)cc1 | > 10000 nM | –
CC(C)O[C@@H](Cc1ccc(OCc2noc(-c3cc(C(F)(F)F)cc(C(F)(F)F)c3)n2)cc1)C(=O)O | 3.98 nM | 31.6 nM
